Assays:
[1] = tested on: Alternaria brassicae; assay: In vivo preventive test on Alternaria brassicae (leaf spot on radish or cabbage); details: 500 ppm of active ingredient, sprayed on young radish or cabbage plants 24 h before inoculation, evaluated 3 to 4 days after inoculation, read-out: efficacy
Procedure, shortened: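 Young radish or cabbage plants sprayed preventively with compound formulated in DMSO/acetone/Tween 80 and diluted in water; vehicle-treated plants as controls. Leaves inoculated by spraying an aqueous Alternaria brassicae spore suspension 24 h after treatment.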

[2] = tested on: Sphaerotheca fuliginea; assay: In vivo preventive test on Sphaerotheca fuliginea (powdery mildew on cucurbits); details: Podosphaera fuliginea, 192 h; 500 ppm of active ingredient, sprayed on young gherkin plants 24 h before inoculation; evaluated 8 days after inoculation; read-out: efficacy
Procedure: B-3. […] The active ingredients were made soluble and homogenized in a mixture of Dimethyl sulfoxide/Acetone//Tween® 80 and then diluted in water to the desired concentration. The young plants of gherkin were treated by spraying the active ingredient prepared as described above. Control plants were treated only with an aqueous solution of Acetone/Dimethyl sulfoxide/Tween® 80. After 24 hours, the plants were contaminated by spraying the leaves with an aqueous suspension of Sphaerotheca fuliginea spores.

[3] = tested on: Pyricularia oryzae; assay: microbe, parasite or virus in culture; type: cell-based; details: 120 h; for inhibition at 20 ppm: read-out: efficacy (inhibition of fungal growth), 20 ppm of active ingredient, liquid culture, 5 days incubation
[4] = tested on: Pyrenophora teres; assay: Pyrenophora teres in vitro cell test; type: cell-based; details: 144 h, liquid culture, 6 days incubation, read-out: efficacy (inhibition of fungal growth); for inhibition at 20 ppm: 20 ppm of active ingredient
Procedure, shortened: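 Compounds in DMSO were added to P. teres spore suspensions in glucose/peptone/yeast-extract liquid medium, testing inhibition of spore germination and mycelium growth. After 6 days, mycelium growth was read by absorbance. Inhibition was calculated relative to fungicide-free control wells.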

[5] = tested on: Septoria tritici; assay: Septoria tritici in vitro cell test; type: cell-based; details: Zymoseptoria tritici, 168 h, liquid culture, 7 days incubation, read-out: efficacy (inhibition of fungal growth); for inhibition at 20 ppm: 20 ppm of active ingredient
Procedure: B-11. Septoria tritici In Vitro Cell Test • Solvent: DMSO • Culture medium: 1 g KH2PO4 (VWR), 1 g K2HPO4 (VWR), 0.5 g Urea (VWR), 3 g KNO3 (Prolabo), 10 g saccharose (VWR), 0.5 g MgSO4, 7H2O (Sigma), 0.07 g CaCl2, 2H2O (Prolabo), 0.2 mg MnSO4, H2O (Sigma), 0.6 mg CuSO4, 5H2O (Sigma), 7.9 mg ZnSO4, 7H2O (Sigma), 0.1 mg H3BO3 (Merck), 0.14 mg NaMoO4, 2H2O (Sigma), 2 mg thiamine (Sigma), 0.1 mg biotine (VWR), 4 mg FeSO4, 7H2O (Sigma), QSP 1 liter • Inoculum: spore suspension Fungicides were solubilized in DMSO and the solution used to prepare the required range of concentrations. […] A spore suspension of S. tritici was prepared and diluted to the desired spore density. Fungicides were evaluated for their ability to inhibit spore germination and mycelium growth in liquid culture assay. The compounds were added in the desired concentration to the culture medium with spores. […] Inhibition of fungal growth was determined by comparing the absorbance values in wells containing the fungicides with the absorbance in control wells without fungicides.

| SMILES | pest or weed control at 500 ppm [1] | pest or weed control at 500 ppm [2] | inhibition at 20 ppm [3] | inhibition at 20 ppm [4] | inhibition at 20 ppm [5] | inhibition at 50 µM ([3]; read-out: efficacy (inhibition of fungal growth), 50 μMol/l of active ingredient, liquid culture, 5 days incubation) | inhibition at 50 µM ([4]; 50 μMol/l of active ingredient) | inhibition at 50 µM ([5]; 50 μMol/l of active ingredient) |
| --- | --- | --- | --- | --- | --- | --- | --- | --- |
| FC(F)(F)c1cccc(Sc2cnc(Cl)cc2C2=NOC[C@@H](Cc3ccc(Cl)cc3Cl)N2)c1 (racemic) [Compound I-022] | 80 to 89% | 90 to 100% | 80 to 89% | 90 to 100% | 80 to 89% |  |  |  |
| Cc1cccc(Sc2cnc3ccccc3c2C2=NOC[C@H](Cc3ccc(C)cc3C)N2)c1 (racemic) [Compound I-023] | 90 to 100% |  | 90 to 100% | 90 to 100% | 90 to 100% |  |  |  |
| Cc1ccc(C[C@@H]2CON=C(c3c(Sc4cccc(C(F)(F)F)c4)nnc4ccccc34)N2)c(C)c1 (racemic) [Compound I-029] | 80 to 89% |  | 90 to 100% | 90 to 100% | 90 to 100% |  |  |  |
| Cc1ccc(C[C@H]2CON=C(c3c(Sc4cccc(C(F)(F)F)c4)cnc4ccccc34)N2)c(C)c1 (racemic) [Compound I-030] | 70 to 79% |  | 90 to 100% | 90 to 100% | 70 to 79% |  |  |  |
| Cc1ccc(C[C@@H]2CON=C(c3nc(C)ncc3Sc3cccc(Cl)c3)N2)c(C)c1 (racemic) [Compound I-031] | 90 to 100% | 90 to 100% |  | 90 to 100% | 80 to 89% |  |  |  |
| Cc1cccc(Sc2cnc(C)nc2C2=NOC[C@@H](Cc3ccc(C)cc3C)N2)c1 (racemic) [Compound I-032] | 90 to 100% | 90 to 100% | 70 to 79% | 90 to 100% | 90 to 100% |  |  |  |
| Cc1ccc(C[C@@H]2CON=C(c3nc(C)ncc3Sc3cccc(Cl)c3)N2)c(Cl)c1 (racemic) [Compound I-033] | 80 to 89% | 90 to 100% |  | 90 to 100% | 90 to 100% |  |  |  |
| Cc1cc([C@@H]2CON=C(c3c(Sc4cccc(Cl)c4)nnc(C)c3C)N2)c(C)s1 (racemic) [Compound I-100] | 90 to 100% |  |  |  |  | 90 to 100% | 90 to 100% | 90 to 100% |

From US20250042886A1, “BIS(HETERO)ARYL THIOETHER OXADIAZINES AS FUNGICIDAL COMPOUNDS” (Bayer Aktiengesellschaft, priority 2021, published 2025)
